Key:
[1] = system: U2OS line transduced with the Bmal 1-Luc reporter; test: Period of the circadian rhythm in U2OS cells with Bmal1-Luc reporter (luminescence, cosinor analysis); format: cell-based, Human; settings: for Period length ± standard error of the mean (expressed relative to control) at the indicated concentration: U2OS, DMSO control = 1.00
Method: Human osteosarcoma U2OS cells were grown in standard DMEM medium with 10% fetal bovine serum. U2OS cells were transduced with lentiviral particles containing a Bmall-Luc fusion reporter and selected under Blasticidin. The cell line was clonally expanded and a single monoclonal cell line was used for further experiments. Cells were cultured in a 384-well plate in growth medium to 90+% confluence. Test compound or vehicle (DMSO) was applied to recording medium with 100 U/ml penicillin, 100 ug/ml streptomycin, 1x GlutaMAX, 10% fetal bovine serum, and 0.1 mM Luciferin-EF. Luminescence was recorded every hour for the next 144 hours. Circadian rhythm analysis was performed using cosinor analysis.
The length of the period was expressed relative to the period of cells affected only by DMSO vehicle (their period is therefore 1.00). […] The overall effect on circadian oscillations unequivocally proves that the compounds of formula I can be also used to temporally modulate the concentration and activity of not only BMAL1, but also other components of the oscillator including the critical components PER2, CRY and CLOCK in time, as these are an essential part of the mechanism generating the rhythmic expression of the luminescent reporter used. The concentration and level of other proteins, whose rhythmic expression is controlled by an oscillator in the brain and peripheral tissues (so-called clock-controlled genes), are also necessarily affected. The influence of the compounds of formula I on the activity of oscillator components and subordinate genes also means influencing the physiological processes of the cell controlled by these genes and proteins. N^6-furfuryladenine was used as a reference compound. […] The ability to shift the phase of the circadian cycle can be seen in FIG. 2.

[2] = system: NIH3T3 line transfected with the Per2-Luc reporter; test: Period of the circadian rhythm in NIH3T3 fibroblasts with Per2-Luc reporter (luminescence, cosinor analysis); format: cell-based, mouse; settings: for Period length ± standard error of the mean (expressed relative to the control) at the indicated concentration: 50 μM, NIH3T3, DMSO control = 1.00
Method: NIH3T3 mouse embryonic fibroblasts were grown in standard DMEM with 10% fetal bovine serum. NIH3T3 cells were transfected with 1 μg of Per2-Luc reporter using GeneJuice and selected under hygromycin. The cell line was clonally expanded and a single monoclonal cell line was used for further experiments. Cells were cultured in a 96-well plate in growth medium to 90+% confluence. Test compound or vehicle (DMSO) was applied to recording medium with 100 U/ml penicillin, 100 μg/ml streptomycin, 1x GlutaMAX, 10% fetal calf serum and 0.1 mM Luciferin-EF (Promega Madison, WI, USA). Luminescence was recorded every hour for the next 144 hours. Circadian rhythm analysis was performed using cosinor analysis. Period length was expressed relative to the period of cells affected only by DMSO vehicle (their period length is therefore 1.00).

[3] = system: explanted suprachiasmatic nuclei (SCN) of the hypothalamus; test: PER2::Luc rhythm in organotypic explants of suprachiasmatic nucleus (LumiCycle); format: cell-based, mouse; settings: ratio of period 72 h after and 72 h before application
Method: FIG. 5. Compounds of formula I modulate the parameters of the circadian clock in the suprachiasmatic nucleus, the central circadian oscillator. It increases the period (left; measured as the ratio of period during 72 h after and 72 h before application of a compound) and induces phase shift (right; quantified by fitting a cosine curve before the application of a compound, extrapolating it beyond the time of application and subtracting the actual and extrapolated phases of the first full circadian cycle corrected by endogenous period of the explant, while designating phase advance as positive and phase delay as negative number in hours). (Example 14)
Male and female mPer2Luc mice (strain B6.129S6-Per2tm1Jt/J, JAX, USA) (Yoo et al., 2004; doi: 10.1073/pnas.0308709101) were maintained in a light/dark cycle with 12 hours of light and 12 hours of darkness (LD12: 12), killed between 12:00 and 15:00, i.e. 6-9 hours after turning on the lights, by rapid cervical dislocation under isoflurane anesthesia, their brains were removed and 250 μm thick SCN slices in ice-cold HBSS medium were prepared using a vibratome (Leica, Wetzlar, Germany). Two explants containing SCN from each brain were prepared. […]

[4] = system: explanted choroid plexus (ChP) of 4th brain ventricle; test: PER2::Luc rhythm in explanted choroid plexus (luminescence microscopy); format: cell-based, mouse; settings: 200 uM, choroid plexus explant
Method: FIG. 6: Compound 4 affects the circadian clock in the explanted choroid plexus (CHP). (A) Individual PER2::Luc traces in analysed single-cell-sized regions of interest (ROIs) of explanted choroid plexus (CP) cultivated over 5 days ex vivo in the presence of DMSO (left) or compound 4 (right). Cosine curve below the traces indicates average oscillation across the whole explant; see dramatic increase of period in the presence of 200 uM compound 4. […] (Example 15)
Male mPer2Luc were kept and sacrificed under the same conditions as above. Their brains were removed, choroid plexus was dissected from the 4th ventricle in ice-cold HBSS medium and placed on Millicell Culture Inserts inside 6-well plate with test compound or DMSO vehicle in 1 ml air-buffered recording medium supplemented with 100 U/ml penicillin, 100 ug/ml streptomycin (Sigma-Aldrich, St. Luis, MO, USA), 1x GlutaMAX (ThermoFisher, Waltham, MA, USA), 1x B27 (ThermoFisher) and 0.1 mM Luciferin-EF (Promega Madison, WI, USA). The were placed inside Luminoview LV200 Miscroscope (Olympus, USA) with liquid-cooled EM-CCD camera (Hamamatsu) and luminescence was recorded by 10 min exposure every 1h.

Row | Structure (SMILES) | Period length ± standard error of the mean (expressed relative to control) at the indicated concentration ([1]; 20 μM) | Period length ± standard error of the mean (expressed relative to the control) at the indicated concentration [2] | Circadian rhythm period (in words) [3] | Period of PER2::Luc (in words) ([4]; 5 days ex vivo, vs DMSO) | Phase of PER2::Luc (in words) ([4]; polar histogram of ROIs vs DMSO) | Period length ± standard error of the mean (expressed relative to control) at the indicated concentration ([1]; 50 μM) | Effect on the period of the circadian rhythm (in words) ([1]; U2OS Bmal1-Luc) | Effect on the period of the circadian rhythm (in words) ([2]; NIH3T3 Per2-Luc)
1 | c1coc(CNc2ncnc3c2ncn3C2CCCCO2)c1 (stereo not drawn) [Compound 4, N-(furan-2-ylmethyl)-9-(tetrahydro-2H-pyran-2-yl)-9H-purin-6-amine] | 20 μM: 1.08 ± 0 | 50 μM: 1.23 ± 0.03 | increases the circadian rhythm period | significantly (t-test, P<0.0001) increased | dramatically affected |  |  | 
2 | COCCCn1cnc2c(NCc3ccco3)ncnc21 [N-(furan-2-ylmethyl)-9-(3-methoxypropyl)-9H-purin-6-amine, reference compound] |  | 50 μM: 0.93 ± 0 |  |  |  | 50 μM: 0.99 ± 0.01 |  | 
3 | COCCCCn1cnc2c(NCc3ccco3)ncnc21 [N-(furan-2-ylmethyl)-9-(4-methoxybutyl)-9H-purin-6-amine, reference compound] |  | 50 μM: 0.97 ± 0.03 |  |  |  | 50 μM: 1 ± 0.01 |  | 
4 | COCn1cnc2c(NCc3ccco3)ncnc21 [N-(furan-2-ylmethyl)-9-(methoxymethyl)-9H-purin-6-amine, reference compound] |  | 50 μM: 0.96 ± 0.02 |  |  |  | 50 μM: 1.01 ± 0.01 |  | 
5 | c1coc(CNc2ncnc3nc[nH]c23)c1 [N^6-furfuryladenine, reference compound] | 20 μM: 1.02 ± 0.01 | 50 μM: 1.06 ± 0.02 |  |  |  |  | minimal effect | much smaller effect

Source: US20250346601A1, “HETEROCYCLIC COMPOUNDS FOR THE PREVENTION AND THERAPY OF CIRCADIAN RHYTHM DISORDERS” (UNIVERZITA PALACKEHO V OLOMOUCI, priority 2022, published 2025)
